Experimental findings from PubChem BioAssay (NCI) are described below.

Among the test systems are IGROV1 ovarian; NCI-H226 lung; SNB-75 CNS; SF-268 CNS; SK-MEL-28 melanoma; OVCAR-3 ovarian; PC-3 prostate; CAKI-1 renal; SK-MEL-2 melanoma; MDA-MB-435; COLO 205 colon; SW-620 colon; UO-31 renal; SR leukemia; UACC-257 melanoma; MCF7 breast; NCI-H460 lung; ACHN renal.
Common to all, as to assay: inhibition of tumour cell growth, NCI panel, 48 h

The structures appear in SMILES notation.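 Each compound was tested at five concentrations against cells in 96-well plates for 48 hours. TGI marks complete inhibition of growth.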 Some results are limits rather than exact numbers.

Consider `COc1ccc(C2=NN(c3ccccc3)C(c3cc4cc(Br)ccc4nc3Cl)C2)cc1` (centres undefined), for which the TGI in the test with IGROV1 ovarian, in the test with NCI-H226 lung, in the test on SNB-75 CNS, with SF-268 CNS, in the test with SK-MEL-28 melanoma and in the test on OVCAR-3 ovarian was more than 25 µM each time. In addition, the TGI in the test on PC-3 prostate, in the test with CAKI-1 renal, in the test with SK-MEL-2 melanoma, with MDA-MB-435, in the test on COLO 205 colon and in the test with SW-620 colon was more than 25 µM throughout. The TGI in the test with UO-31 renal and with SR leukemia was more than 25 µM throughout.
Take `Cc1ccc2c(=O)c(-c3nnc(N)s3)c[nH]c2n1`: the TGI in the test on IGROV1 ovarian, with NCI-H226 lung, in the test on UACC-257 melanoma, in the test on MCF7 breast, in the test with SF-268 CNS and with SK-MEL-28 melanoma was more than 100 µM in each case. For the same compound, the TGI in the test on OVCAR-3 ovarian, with PC-3 prostate, in the test on CAKI-1 renal, with NCI-H460 lung, in the test with SK-MEL-2 melanoma and in the test with MDA-MB-435 was more than 100 µM throughout. For the same compound, the TGI in the test with COLO 205 colon, with SW-620 colon, with UO-31 renal and in the test on ACHN renal was more than 100 µM each time.
Turning to `CCN1CC2=C(NC(=S)NC2c2cc(OC)c(OC)c(OC)c2)/C(=C/c2cc(OC)c(OC)c(OC)c2)C1` (centres undefined), the TGI with IGROV1 ovarian is more than 100 µM; in the test on NCI-H226 lung, more than 100 µM; with UACC-257 melanoma, more than 100 µM; with MCF7 breast it was more than 100 µM; with SNB-75 CNS it was 20.8 µM; in the test on SF-268 CNS, 37.7 µM. The TGI in the test with SK-MEL-28 melanoma is 47.2 µM; in the test on OVCAR-3 ovarian it was more than 100 µM; in the test on PC-3 prostate it was more than 100 µM; with CAKI-1 renal, more than 100 µM; in the test on NCI-H460 lung, more than 100 µM; with SK-MEL-2 melanoma, more than 100 µM. The TGI is more than 100 µM in the test with MDA-MB-435; 52.9 µM with COLO 205 colon; more than 100 µM in the test with SW-620 colon; 67.7 µM in the test on UO-31 renal; more than 100 µM with ACHN renal.
As for `O=C(N/N=C1/C(=O)c2c3ccccc3cc3cccc1c23)c1cccc(Cl)c1`, the TGI in the test with IGROV1 ovarian, in the test on NCI-H226 lung, in the test on UACC-257 melanoma, in the test on SNB-75 CNS, with SK-MEL-28 melanoma and in the test on OVCAR-3 ovarian was more than 100 µM in each case. In addition, the TGI with PC-3 prostate, with CAKI-1 renal, in the test with NCI-H460 lung, in the test with SK-MEL-2 melanoma, with MDA-MB-435 and with COLO 205 colon was more than 100 µM in each case. Besides, the TGI in the test on SW-620 colon, with SR leukemia and in the test on ACHN renal was more than 100 µM in each case.
As to `COc1ccccc1S(=O)Nc1ccccc1` (centres undefined), the TGI in the test with IGROV1 ovarian, with NCI-H226 lung, in the test on UACC-257 melanoma, in the test with MCF7 breast, with SF-268 CNS and in the test on SK-MEL-28 melanoma was more than 100 µM each time. Besides, the TGI with OVCAR-3 ovarian, in the test with NCI-H460 lung, in the test with SK-MEL-2 melanoma, with MDA-MB-435, with COLO 205 colon and in the test on SW-620 colon was more than 100 µM in each case. In addition, the TGI in the test on UO-31 renal, with SR leukemia and with ACHN renal was more than 100 µM throughout.
Turning to `COc1ccc(C(C2C(=O)N(C)C(=O)N(C)C2=O)C(F)(F)C(=O)N(C)C)cc1` (centres undefined), the TGI in the test with NCI-H226 lung, in the test on UACC-257 melanoma, with MCF7 breast, in the test with SNB-75 CNS, in the test on SF-268 CNS and in the test with SK-MEL-28 melanoma was more than 100 µM in each case. Besides, the TGI in the test with OVCAR-3 ovarian, with PC-3 prostate, in the test with CAKI-1 renal, with NCI-H460 lung, in the test on SK-MEL-2 melanoma and in the test with MDA-MB-435 was more than 100 µM in each case. The TGI with COLO 205 colon, with SW-620 colon, in the test on UO-31 renal and in the test with ACHN renal was more than 100 µM throughout.
Regarding `O=c1cc(CC(O)(C(F)(F)Cl)C(F)(F)Cl)[nH]n1-c1ccccc1`, the TGI in the test on IGROV1 ovarian, in the test with NCI-H226 lung, in the test on UACC-257 melanoma, in the test with MCF7 breast, with SNB-75 CNS and in the test on SF-268 CNS was more than 100 µM each time. In addition, the TGI in the test with SK-MEL-28 melanoma, in the test with NCI-H460 lung, with MDA-MB-435, in the test with COLO 205 colon, in the test with SW-620 colon and in the test with UO-31 renal was more than 100 µM each time. Further, the TGI in the test with SR leukemia and in the test on ACHN renal was more than 100 µM throughout.
`O=C1NC(=O)C(C(c2ccc(Cl)cc2)C2C(=O)NC(=O)NC2=O)C(=O)N1`: the TGI with IGROV1 ovarian, with NCI-H226 lung, in the test with UACC-257 melanoma, in the test with MCF7 breast, with SK-MEL-28 melanoma and in the test on OVCAR-3 ovarian was more than 100 µM in each case. Further, the TGI in the test on PC-3 prostate, with CAKI-1 renal, in the test with NCI-H460 lung, with SK-MEL-2 melanoma, in the test on MDA-MB-435 and in the test with COLO 205 colon was more than 100 µM throughout. Also, the TGI in the test with SW-620 colon, in the test on UO-31 renal and in the test with ACHN renal was more than 100 µM in each case.
As to `C=C(C)[C@@]1(O)CCC[C@H]1NC(=O)OC(C)(C)C`, the TGI with IGROV1 ovarian, with NCI-H226 lung, with UACC-257 melanoma, in the test on MCF7 breast, in the test on SNB-75 CNS and with SF-268 CNS was more than 100 µM throughout. Further, the TGI with SK-MEL-28 melanoma, in the test with OVCAR-3 ovarian, with PC-3 prostate, in the test on CAKI-1 renal, in the test on NCI-H460 lung and with SK-MEL-2 melanoma was more than 100 µM in each case. For the same compound, the TGI in the test on MDA-MB-435, with COLO 205 colon, in the test with SW-620 colon, in the test on UO-31 renal and in the test on ACHN renal was more than 100 µM throughout.
